Peptide text beside a SMILES is read from it.
How the values were obtained:
[1] = system: LPS-induced acute liver injury; settings: mice; cited from earlier work
[2] = system: hepatic reperfusion-injury; settings: rat model; cited from earlier work
[3] = system: clinical markers of liver injury; assay: Secondary analysis of phase II crossover trial of Alanyl-Glutamine supplementation to PDF, liver tests; type: in vivo, human; settings: patients on chronic PD, n=41, crossover
Source text: To further investigate the effect of Alanyl-Glutamine supplementation to PDF in human PD-induced hepatic (dys)function, the inventors conducted a secondary analysis of a prospective, multicenter, double-blinded, controlled, randomized, dual-period, 2-treatment, crossover, phase II, proof-of-concept study including eight Austrian centers for Alanyl-Glutamine supplementation to the PDF in patients on chronic PD.
This study cohort and its baseline characteristics have already been previously described by Vychytil et al (8).

[4] = system: PD induced hepatic inflammatory response; assay: Murine chronic PD exposure model, liver histology (NAS, Oil Red O, Sirius Red); type: in vivo; settings: uremic mice with PD, PDF supplemented with Alanyl-Glutamine 8 mM
Source text: (§1) The inventors conducted a murine PD exposure experiment resembling chronic PD in healthy and uremic mice: The experiment consisted of n=34 animals in six distinct groups.
(§2) The animals were split in the following groups: • 1) Healthy control animals ("control") • 2) Healthy animals receiving PD treatment (via an indwelling catheter) ("PD") • 3) Healthy animals receiving PD treatment (via an indwelling catheter) supplemented with Alanyl-Glutamine ("PD+AG") • 4) Uremic animals ("uremic") • 5) Uremic animals receiving PD treatment (via an indwelling catheter) ("uremic PD") • 6) Uremic animals receiving PD treatment (via an indwelling catheter) supplemented with Alanyl-Glutamine ("uremic PD+AG")
(§3) All animals of the uremic groups (Groups 4, 5, and 6) were subjected to left-sided 2/3 nephrectomy at day 0 of the study, and to complete right-sided nephrectomy at day 7 of the study, thereby inducing chronic kidney disease.
(§4) All animals receiving PD treatment (Groups 2, 3, 5, and 6) had their indwelling catheter implanted at day 7 of the study.
Animals in groups 2,3, 5, and 6 received daily PDF (Dianeal PD4 3.86% [Baxter, Deerfield, IL, USA]) injections via their indwelling catheter starting from day 14 over the course of six weeks, thereby inducing chronic PDF exposure.
For animals of groups 3 and 6 the daily PDF injections were supplemented with Alanyl-Glutamine (8 mM) over the course of six weeks.
At sacrifice (day 56 of the study), animal livers were subjected to histologic analysis.
NAFLD activity score (NAS) assessment was conducted as previously described (47) on hematoxylin & eosin (H&E) stained hepatic tissue on one facial field image per mouse.
Steatosis hepatis was assessed by semi-quantitative measurement of Oil Red O stained hepatic tissue with one facial field image per mouse.
Fibrosis hepatis was assessed by semi-quantitative measurement of Sirius Red stained hepatic tissue with one facial field image per mouse.

[5] = system: systemic inflammation; settings: addition to PDF in PD patients; tendency for hs-CRP and IL-6, statistical significance with IL-8; cited from earlier work
[6] = system: acute-phase-response- and inflammation-associated proteins within the liver; assay: Murine chronic PD exposure model, mass spectrometry proteomics analysis of liver; type: in vivo, mice; settings: liver of uremic animals receiving PD; of 57 proteins dysregulated by PD; p<0.05
Source text: as §1, §2, §3, §4
Animals in groups 2,3, 5, and 6 received daily PDF (Dianeal PD4 3.86% [Baxter, Deerfield, IL, USA]) injections via their indwelling catheter starting from day 14 over the course of six weeks, thereby inducing chronic PDF exposure. […]

[7] = system: steatohepatitis and fibrosis; settings: murine NAFLD model; cited from earlier work
[8] = log10 transformed due to skewness
[9] = H&E liver sections, daily over six weeks, vs uremic PD

## C[C@H](N)C(=O)N[C@@H](CCC(N)=O)C(=O)O [Alanyl-Glutamine, L-alanyl-L-glutamine] (H-Ala-Gln-OH)
[1]
  LPS-induced acute liver injury: protect mice against LPS-induced acute liver injury
[2]
  hepatic reperfusion-injury: reduce hepatic reperfusion-injury
[3]; [8]
  GGT, Least squares mean (95% CI): 1.41 (1.37 to 1.46) U/L
  GOT/AST, Least squares mean (95% CI): 1.23 (1.19 to 1.27) U/L
  GPT/ALT, Least squares mean (95% CI): 1.20 (1.15 to 1.25) U/L
  LDH, Least squares mean (95% CI): 2.30 (2.27 to 2.32) U/L
[3]; log10 transformed, p value 0.0206
  LDH, Difference Alanyl-Glutamine-placebo, estimate ± SE: -0.03 ± 0.01 U/L
[3]; log10 transformed, p value 0.0466
  GPT/ALT, Difference Alanyl-Glutamine-placebo, estimate ± SE: -0.06 ± 0.03 U/L
[3]; log10 transformed, p value 0.1877
  GOT/AST, Difference Alanyl-Glutamine-placebo, estimate ± SE: -0.04 ± 0.03 U/L
[3]; log10 transformed, p value 0.4901
  GGT, Difference Alanyl-Glutamine-placebo, estimate ± SE: -0.02 ± 0.02 U/L
[4]; [9]
  areas of hepatocyte ballooning: decreased
  numbers of inflammatory immune cell infiltrates: markedly decreased
[4]; liver sections
  PD induced fibrosis (% area of Sirius Red stained tissue): trends of improvement
  PD induced steatosis (% area of Oil Red O stained tissue): trends of improvement
[4]; daily over six weeks, vs uremic PD, Mann Whitney U test
  NAFLD activity score (NAS): significantly (p<0.05) decreased
[5]
  systemic inflammation (hs-CRP, IL-6, IL-8): attenuate systemic inflammation
[6]
  number of acute-phase-response- and inflammation-associated proteins with significantly altered abundance: 11
[7]
  steatohepatitis and fibrosis: significantly attenuate steatohepatitis and fibrosis

From EP4424307A1, “PROTECTIVE AGENT FOR USE IN PERITONEAL DIALYSIS” (Zytoprotec GmbH, priority 2023, dated 2024)
